Reference: patent publication US9725445B2, “Cycloalkyl nitrile pyrazolo pyridones as Janus kinase inhibitors” (Merck Sharp & Dohme Corp., priority 2013, dated 2017)

Experiments:
[1] = biological target: JAK1 (Homo sapiens (Human), UniProt P23458); assay: Jak biochemical HTRF assay, JAK1; conditions: HTRF biochemical assay, recombinant GST-tagged catalytic domain; read-out: JAK1 IC50
[2] = biological target: JAK2 (Homo sapiens (Human), UniProt O60674); assay: Jak biochemical HTRF assay, JAK2; conditions: HTRF biochemical assay, recombinant GST-tagged catalytic domain; read-out: JAK2 IC50
Chain of JAK2 (O60674 849-1124): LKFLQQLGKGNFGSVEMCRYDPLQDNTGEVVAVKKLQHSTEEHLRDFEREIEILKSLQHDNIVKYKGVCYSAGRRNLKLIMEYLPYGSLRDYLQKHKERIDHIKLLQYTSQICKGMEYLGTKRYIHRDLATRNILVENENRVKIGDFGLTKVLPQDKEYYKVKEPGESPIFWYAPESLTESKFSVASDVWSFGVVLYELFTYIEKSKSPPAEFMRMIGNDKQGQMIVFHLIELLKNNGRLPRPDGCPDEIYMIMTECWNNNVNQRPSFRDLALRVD

Chain of JAK1 (P23458 875-1153): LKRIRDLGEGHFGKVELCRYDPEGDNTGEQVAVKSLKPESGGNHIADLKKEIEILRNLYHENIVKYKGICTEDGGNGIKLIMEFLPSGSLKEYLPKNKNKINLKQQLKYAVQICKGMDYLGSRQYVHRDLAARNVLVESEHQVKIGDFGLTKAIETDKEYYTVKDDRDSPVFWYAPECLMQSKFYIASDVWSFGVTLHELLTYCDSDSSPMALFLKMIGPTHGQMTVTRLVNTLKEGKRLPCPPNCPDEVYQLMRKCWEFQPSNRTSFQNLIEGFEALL

IC50 [1] [nM] | IC50 [2] [nM] | Compound
0.22 | 0.59 | N#C[C@H]1CCC[C@@H]1n1nc(Nc2ccc(C(N)C(F)(F)F)cc2)c2c(=O)[nH]ccc21 (single isomer, unassigned) [Example 3-137, (1S,2S)-2-[3-({4-[(1S or 1R)-1-amino-2,2,2-trifluoroethyl]phenyl}amino)-4-oxo-4,5-dihydro-1H-pyrazolo[4,3-c]pyridin-1-yl]cyclopentanecarbonitrile]
0.13 | 0.2 | Cc1cc(Nc2nn([C@H]3CCCC[C@@H]3C#N)c3cc[nH]c(=O)c23)ccc1C(=O)N1CCCC1 [Example 3-27, (1S,2S)-2-(3-{[3-methyl-4-(pyrrolidin-1-ylcarbonyl)phenyl]amino}-4-oxo-4,5-dihydro-1H-pyrazolo[4,3-c]pyridin-1-yl)cyclohexanecarbonitrile]
0.28 | 0.55 | CC1(N2Cc3cc(Nc4nn([C@H]5CCCC[C@@H]5C#N)c5cc[nH]c(=O)c45)ccc3S2(=O)=O)CCC(F)(F)CC1 [Example 15-73, (1S,2S)-2-(3-{[2-(4,4-difluoro-1-methylcyclohexyl)-1,1-dioxido-2,3-dihydro-1,2-benzisothiazol-5-yl]amino}-4-oxo-4,5-dihydro-1H-pyrazolo[4,3-c]pyridin-1-yl)cyclohexanecarbonitrile]
0.3 | 13 | C[C@H](NC1CCC(n2nc(Nc3ccc(Cl)cc3)c3c(=O)[nH]ccc32)C(C#N)C1)C1CC1 (stereo in doubt) [Example 4-3, (1R,2R,5R)-2-(3-((4-Chlorophenyl)amino)-4-oxo-4,5-dihydro-1H-pyrazolo[4,3-c]pyridin-1-yl)-5-(((S)-1-cyclopropylethyl)amino)cyclohexanecarbonitrile]
9.4 | 16 | CS(=O)(=O)c1ccc(Nc2nn([C@@H]3CCCC[C@H]3C#N)c3cc[nH]c(=O)c23)cc1 [Example 3-4, (1R,2R)-2-(3-{[4-(methylsulfonyl)phenyl]amino}-4-oxo-4,5-dihydro-1H-pyrazolo[4,3-c]pyridin-1-yl)cyclohexanecarbonitrile]
0.14 | 0.84 | CC(O)(c1ccc(Nc2nn([C@H]3CCCC[C@@H]3C#N)c3cc[nH]c(=O)c23)cc1)C(F)(F)F (single isomer, unassigned) [Example 15-12, (1S,2S)-2-[4-oxo-3-({4-[(1R or 1S)-2,2,2-trifluoro-1-hydroxy-1-methylethyl]phenyl}amino)-4,5-dihydro-1H-pyrazolo[4,3-c]pyridin-1-yl]cyclohexanecarbonitrile]
0.45 | 0.88 | N#C[C@H]1CCCC[C@@H]1n1nc(Nc2ccc3c(c2)CNCC3)c2c(=O)[nH]ccc21 [Example 3-157, (1S,2S)-2-[4-oxo-3-(1,2,3,4-tetrahydroisoquinolin-7-ylamino)-4,5-dihydro-1H-pyrazolo[4,3-c]pyridin-1-yl]cyclohexanecarbonitrile]
0.17 | 0.43 | CC(C)(C)NS(=O)(=O)c1ccc(Nc2nn([C@H]3CCCC[C@@H]3C#N)c3cc[nH]c(=O)c23)cc1 [Example 3-140, N-tert-butyl-4-({1-[(1S,2S)-2-cyanocyclohexyl]-4-oxo-4,5-dihydro-1H-pyrazolo[4,3-c]pyridin-3-yl}amino)benzenesulfonamide]
0.044 | 0.41 | CCN1Cc2cc(Nc3nn([C@H]4CCCC[C@@H]4C#N)c4cc[nH]c(=O)c34)ccc2S1(=O)=O [Example 3-60, (1S,2S)-2-{3-[(2-ethyl-1,1-dioxido-2,3-dihydro-1,2-benzisothiazol-5-yl)amino]-4-oxo-4,5-dihydro-1H-pyrazolo[4,3-c]pyridin-1-yl}cyclohexanecarbonitrile]
0.4 | 5.4 | N#C[C@H]1CCCC[C@@H]1n1nc(Nc2ccnc(F)c2)c2c(=O)[nH]ccc21 [Example 3-2, (1S,2S)-2-{3-[(2-fluoropyridin-4-yl)amino]-4-oxo-4,5-dihydro-1H-pyrazolo[4,3-c]pyridin-1-yl}cyclohexanecarbonitrile]
0.13 | 0.82 | N#C[C@H]1CCCC[C@@H]1n1nc(Nc2ccc(C(O)C(F)(F)F)cc2)c2c(=O)[nH]ccc21 (single isomer, unassigned) [Example 3-8]
2.5 | 4 | CC(O)(CO)c1cccc(Nc2nn([C@H]3CCCC[C@@H]3C#N)c3cc[nH]c(=O)c23)c1 (stereo partly drawn) [Example 11-1, (1S,2S)-2-(3-((3-(1,2-Dihydroxypropan-2-yl)phenyl)amino)-4-oxo-4,5-dihydro-1H-pyrazolo[4,3-c]pyridin-1-yl)cyclohexanecarbonitrile]
0.28 | 0.68 | CC(C)CN1Cc2ccc(Nc3nn([C@H]4CCCC[C@@H]4C#N)c4cc[nH]c(=O)c34)cc2C1 [Example 3-75, (1S,2S)-2-(3-{[2-(2-methylpropyl)-2,3-dihydro-1H-isoindol-5-yl]amino}-4-oxo-4,5-dihydro-1H-pyrazolo[4,3-c]pyridin-1-yl)cyclohexanecarbonitrile]
0.11 | 0.4 | CC(C)S(=O)(=O)c1ccc(Nc2nn([C@H]3CCC[C@@H]3C#N)c3cc[nH]c(=O)c23)cc1 [Example 3-105, (1S,2S)-2-[3-({4-[(1-methylethyl)sulfonyl]phenyl}amino)-4-oxo-4,5-dihydro-1H-pyrazolo[4,3-c]pyridin-1-yl]cyclopentanecarbonitrile]
0.46 | 1.7 | CC(O)c1cccc(Nc2nn([C@H]3CCCC[C@@H]3C#N)c3cc[nH]c(=O)c23)c1 (stereo partly drawn) [Example 3-31, (1S,2S)-2-(3-{[3-(1-hydroxyethyl)phenyl]amino}-4-oxo-4,5-dihydro-1H-pyrazolo[4,3-c]pyridin-1-yl)cyclohexanecarbonitrile]
0.52 | 2.6 | CC(C)(O)c1cn(Cc2cccc(Nc3nn([C@H]4CCCC[C@@H]4C#N)c4cc[nH]c(=O)c34)c2)nn1 [Example 3-84, (1S,2S)-2-{3-[(3-{[4-(1-hydroxy-1-methylethyl)-1H-1,2,3-triazol-1-yl]methyl}phenyl)amino]-4-oxo-4,5-dihydro-1H-pyrazolo[4,3-c]pyridin-1-yl}cyclohexanecarbonitrile]
0.43 | 0.41 | Cc1cc(Nc2nn([C@@H]3CCCCC[C@H]3C#N)c3cc[nH]c(=O)c23)ccc1C(=O)N1CCCC1 (single isomer, unassigned) [Example 15-45, (1R,2R or 1S,2S)-2-(3-{[3-methyl-4-(pyrrolidin-1-ylcarbonyl)phenyl]amino}-4-oxo-4,5-dihydro-1H-pyrazolo[4,3-c]pyridin-1-yl)cycloheptanecarbonitrile]
0.17 | 0.79 | COCCNS(=O)(=O)c1ccc(Nc2nn([C@H]3CCCC[C@@H]3C#N)c3cc[nH]c(=O)c23)cc1 [Example 3-21, 4-({1-[(1S,2S)-2-cyanocyclohexyl]-4-oxo-4,5-dihydro-1H-pyrazolo[4,3-c]pyridin-3-yl}amino)-N-(2-methoxyethyl)benzenesulfon-amide]
0.1 | 0.49 | N#C[C@H]1CCCC[C@@H]1n1nc(Nc2cccc(Cn3ccnn3)c2)c2c(=O)[nH]ccc21 [Example 3-26, (1S,2S)-2-(4-oxo-3-{[3-(1H-1,2,3-triazol-1-ylmethyl)phenyl]amino}-4,5-dihydro-1H-pyrazolo[4,3-c]pyridin-1-yl)cyclohexanecarbonitrile]
5 | 16 | CC1(C)OCC(C)(c2cccc(Nc3nn([C@H]4CCCC[C@@H]4C#N)c4cc[nH]c(=O)c34)c2)O1 (stereo partly drawn) [Example 3-38, (1S,2S)-2-{4-Oxo-3-[3-(2,2,4-trimethyl-[1,3]dioxolan-4-yl)-phenylamino]-4,5-dihydro-pyrazolo[4,3-c]pyridin-1-yl}-cyclohexanecarbonitrile]
0.15 | 0.47 | N#C[C@H]1CCCC[C@@H]1n1nc(Nc2ccc(S(=O)(=O)N3CCOCC3)cc2)c2c(=O)[nH]ccc21 [Example 3-24, (1S,2S)-2-(3-{[4-(morpholin-4-ylsulfonyl)phenyl]amino}-4-oxo-4,5-dihydro-1H-pyrazolo[4,3-c]pyridin-1-yl)cyclohexanecarbonitrile]
0.6 | 14 | CN(C)[C@H]1CC[C@H](n2nc(Nc3ccc(Cl)c(F)c3)c3c(=O)[nH]ccc32)[C@@H](C#N)C1 [Example 5-2, (1S,2S,5S)-2-(3-((4-Chloro-3-fluorophenyl)amino)-4-oxo-4,5-dihydro-1H-pyrazolo[4,3-c]pyridin-1-yl)-5-(dimethylamino)cyclohexanecarbonitrile]
0.13 | 1.9 | N#C[C@H]1CCCC[C@@H]1n1nc(Nc2ccc(-c3ncco3)cc2)c2c(=O)[nH]ccc21 [Example 15-1, (1S,2S)-2-(3-{[4-(1,3-Oxazol-2-yl)phenyl]amino}-4-oxo-4,5-dihydro-1H-pyrazolo[4,3-c]pyridin-1-yl)cyclohexanecarbonitrile]
1.7 | 40 | N#C[C@H]1C[C@H](N2CCC2)CC[C@@H]1n1nc(Nc2ccc(Cl)c(F)c2)c2c(=O)[nH]ccc21 [Example 5-3, (1S,2S,5R)-5-(azetidin-1-yl)-2-(3-((4-chloro-3-fluorophenyl)amino)-4-oxo-4,5-dihydro-1H-pyrazolo[4,3-c]pyridin-1-yl)cyclohexanecarbonitrile]
0.2 | 0.53 | N#C[C@H]1CCCC[C@@H]1n1nc(Nc2ccc(CNCC(F)(F)F)cc2)c2c(=O)[nH]ccc21 [Example 3-57, (1S,2S)-2-{4-oxo-3-[(4-{[(2,2,2-trifluoroethyl)amino]methyl}phenyl)amino]-4,5-dihydro-1H-pyrazolo[4,3-c]pyridin-1-yl}cyclohexanecarbonitrile]
0.066 | 0.54 | N#C[C@H]1CCCC[C@@H]1n1nc(Nc2ccc3c(c2)CN(CC2CC2)S3(=O)=O)c2c(=O)[nH]ccc21 [Example 3-63, (1S,2S)-2-(3-{[2-(cyclopropylmethyl)-1,1-dioxido-2,3-dihydro-1,2-benzisothiazol-5-yl]amino}-4-oxo-4,5-dihydro-1H-pyrazolo[4,3-c]pyridin-1-yl)cyclohexanecarbonitrile]
